Where two headings read alike, the source gives them in different places.
Experiments:
[1] = Lipid nanoparticle size, PDI and encapsulation; type: physicochemical; details: Table 3; for Size (nm): lipid nanoparticle; for EE %: lipid nanoparticle encapsulation
Experimental: In the context of nucleic acids, full encapsulation may be determined by performing a membrane-impermeable fluorescent dye exclusion assay, which uses a dye that has enhanced fluorescence when associated with nucleic acid. Encapsulation is determined by adding the dye to a lipid formulation, measuring the resulting fluorescence, and comparing it to the fluorescence observed upon addition of a small amount of nonionic detergent. Detergent-mediated disruption of the lipid layer releases the encapsulated nucleic acid, allowing it to interact with the membrane-impermeable dye. Nucleic acid encapsulation may be calculated as E=(I0−I)/I0, where I and I0 refer to the fluorescence intensities before and after the addition of detergent.

hEPO = hEPO mRNA expression evaluation (hEPO-LNPs); type: in vivo, Balb/c mice; details: for EPO expression in ng/mL @ 0.3 mg/kg: Table 3; for EPO exprssn (ng/mL) 0.03 mpk: 0.03 mpk i.v.; for EPO exprssn (ng/mL) 0.03 mpk / EPO exprssn (ng/mL) 0.1 mpk: serum hEPO after 6 hr; for EPO exprssn (ng/mL) 0.1 mpk: 0.1 mpk i.v.
[2] = In vivo biodegradability assay (lipid in liver); details: for Invivo lipid degradability ng/g of Liver tissue @ 0.3 mg/kg dose: Table 3; for In vivo degradability (ng/tissue) at 48h 0.03 mpk / In vivo degradability (ng/tissue) at 48h 0.1 mpk: mouse liver
[3] = Lipid nanoparticle size, PDI and encapsulation; type: physicochemical; details: Table 3
[4] = Measured pKa in the indicated formulation; details: for pKa: EPO: measured in EPO formulation; for pKa: FVII: measured in FVII formulation
Experimental: Measured pKa values were determined based on the pH measured in the indicated formulation (i.e., EPO or FVII formulation).

factor VII = test: Factor VII knock down evaluation (LNP with FVII siRNA); type: in vivo, Balb/C mice; details: for FVII KD % 0.01 mpk: 0.01 mpk i.v.; for FVII KD % 0.01 mpk / FVII KD % 0.03 mpk: plasma FVII after 48 h vs saline control; for FVII KD % 0.03 mpk: 0.03 mpk i.v.
How it was run: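 Female Balb/C mice, 7–8 weeks old, received FVII siRNA lipid nanoparticles intravenously at 0.03 or 0.01 mg/kg. Plasma was collected 48 h later and FVII protein measured by chromogenic assay at 405 nm against a control plasma calibration curve. Levels are relative to saline-treated controls.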

Mouse plasma stability = type: in vitro ADME, CD-1 mouse; details: 1 uM lipid
How it was run: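 Lipid at 1 μM starting concentration incubated in stirred CD-1 mouse plasma (sodium heparin) at 37° C.; samples at 0–120 min quenched with acetonitrile/methanol plus internal standard. LC-MS peak area relative to T=0 gave % remaining; T1/2 from first-order decay.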

Row | Compound | Size (nm) [1] [nm] | EE % [1] [%] | PDI [3] | pKa [4] | FVII KD % 0.01 mpk (factor VII; Table 1) [%] | FVII KD % 0.03 mpk (factor VII; Table 1) [%] | FVII KD % 0.01 mpk (factor VII; Table 2) [%] | FVII KD % 0.03 mpk (factor VII; Table 2) [%] | Percent remaining in mouse plasma after 2 h (Mouse plasma stability; Table 1, mouse plasma 37 C) [%] | Percent remaining in mouse plasma after 2 h (Mouse plasma stability; Table 2, mouse plasma 37 C) [%] | EPO exprssn (ng/mL) 0.03 mpk (hEPO; Table 1) [ng/mL] | EPO exprssn (ng/mL) 0.1 mpk (hEPO; Table 1) [ng/mL] | EPO exprssn (ng/mL) 0.1 mpk (hEPO; Table 2) [ng/mL] | In vivo degradability (ng/tissue) at 48h 0.03 mpk ([2]; Table 1) | In vivo degradability (ng/tissue) at 48h 0.1 mpk ([2]; Table 1) | In vivo degradability (ng/tissue) at 48h 0.03 mpk ([2]; Table 2) | In vivo degradability (ng/tissue) at 48h 0.1 mpk ([2]; Table 2) | pKa ([4]; EPO formulation) | pKa ([4]; FVII formulation) | other results
1 | CN(C)CCCC(=O)OC(CCCC(=O)OC(COC(=O)CCCC1CCCCC1)COC(=O)CCCC1CCCCC1)CCCC(=O)OC(COC(=O)CCCC1CCCCC1)COC(=O)CCCC1CCCCC1 | 70.09 | 93.4 | 0.081 | 6.49 |  |  |  |  |  |  |  |  |  |  |  |  |  |  |  | EPO expression in ng/mL @ 0.3 mg/kg (hEPO): 19337.84 ng/mL; Invivo lipid degradability ng/g of Liver tissue @ 0.3 mg/kg dose [2]: BLOQ
2 | CN(C)CCCC(=O)OC(CCCC(=O)OCC(COC(=O)CCC1CCCCC1)COC(=O)CCC1CCCCC1)CCCC(=O)OCC(COC(=O)CCC1CCCCC1)COC(=O)CCC1CCCCC1 [Lipid 61, bis(3-((3-cyclohexylpropanoyl)oxy)-2-(((3-cyclohexylpropanoyl)oxy)methyl)propyl)5-((4-(dimethylamino)butanoyl)oxy)nonanedioate] | 70.54 | 95.3 | 0.064 | 6.84 |  |  |  |  |  |  |  |  |  |  |  |  |  |  |  | EPO expression in ng/mL @ 0.3 mg/kg (hEPO): 4238.52 ng/mL; Invivo lipid degradability ng/g of Liver tissue @ 0.3 mg/kg dose [2]: BLOQ
3 | CN(C)CCCSC(=O)N(CCCC(=O)OC(COC(=O)CCc1ccc2ccccc2c1)COC(=O)CCc1ccc2ccccc2c1)CCCC(=O)OC(COC(=O)CCc1ccc2ccccc2c1)COC(=O)CCc1ccc2ccccc2c1 [Lipid 44, ((4,4′-((((3-(dimethylamino)propyl)thio)carbonyl)azanediyl)bis(butanoyl))bis(oxy))bis(propane-2,1,3-triyl)tetrakis(3-(naphthalen-2-yl)propanoate)] | 113.1 | 85.7 | 0.134 |  |  |  |  |  |  |  |  |  |  |  |  |  |  |  |  | 
4 | CC1CCC(CCC(=O)OCC(C)(COC(=O)CCC2CCC(C)CC2)COC(=O)CCN(CCC(=O)OCC(C)(COC(=O)CCC2CCC(C)CC2)COC(=O)CCC2CCC(C)CC2)C(=O)N(C)CCCN(C)C)CC1 (centres unmarked) [Lipid 48, (((3,3′-((((3-dimethylamino)propyl)methylcarbamoyl)azanediyl)bis(propanoyl))bis(oxy))bis(methylene))bis(2-methylpropane-2,1,3-triyl)tetrakis(3-(4-methylcyclohexyl)propanoate)] | 103.2 | 96.2 | 0.065 | 7.18 |  |  |  |  |  |  |  |  |  |  |  |  |  |  |  | 
5 | CC1CCC(CCC(=O)OCC(C)(COC(=O)CCC2CCC(C)CC2)COC(=O)CCN(CCC(=O)OCC(C)(COC(=O)CCC2CCC(C)CC2)COC(=O)CCC2CCC(C)CC2)C(=O)NCCCN(C)C)CC1 (centres unmarked) [Lipid 47, (((3,3′-((((3-dimethylamino)propyl)carbamoyl)azanediyl)bis(propanoyl))bis(oxy))bis(methylene))bis(2-methylpropane-2,1,3-triyl)tetrakis(3-(4-methylcyclohexyl)propanoate)] | 98.26 | 98.9 | 0.089 |  |  |  |  |  |  |  |  |  |  |  |  |  |  |  |  | 
6 | CC1CCC(CCC(=O)OCC(C)(COC(=O)CCC2CCC(C)CC2)COC(=O)CCN(CCC(=O)OCC(C)(COC(=O)CCC2CCC(C)CC2)COC(=O)CCC2CCC(C)CC2)C(=O)CCCCN(C)C)CC1 (centres unmarked) [Lipid 49, (((3,3′-((5-(dimethylamino)pentanoyl)azanediyl)bis (propanoyl))bis(oxy))bis(methylene))bis(2-methylpropane-2,1,3-triyl)tetrakis(3-(4-methylcyclohexyl)propanoate)] | 97.23 | 98.9 | 0.028 | 7.5 |  |  |  |  |  |  |  |  |  |  |  |  |  |  |  | FVII KD % @ 0.03 mg/kg (factor VII; Table 3, 0.03 mg/kg): 3.57%
7 | CCCCCCCCC(=O)OCC(COC(=O)CCCCCCCC)OC(=O)CCCN(CCCC(=O)OC(COC(=O)CCCCCCCC)COC(=O)CCCCCCCC)C(=O)SCCCN(C)C [LIPID 1, ((4,4′-((((3-(Dimethylamino)propyl)thio)carbonyl)azanediyl)bis(butanoyl))bis(oxy))bis(propane-2,1,3-triyl)tetranonanoate] |  |  |  |  | 84 | 100 | 84 | 100 | 14 | 14 | 432 | 1413 | 1413 | BLOQ | BLOQ | BLOQ | BLOQ | 6.4 | 6.64 | EPO exprssn (ng/mL) 0.03 mpk (hEPO; Table 2): 432 ng/mL; pKa: EPO ([4]; Table 2): 6.4; pKa: FVII ([4]; Table 2): 6.64
8 | CCCCCCCCC(=O)OCC(COC(=O)CCCCCCCC)OC(=O)CCCC(CCCC(=O)OC(COC(=O)CCCCCCCC)COC(=O)CCCCCCCC)OC(=O)CCCN(C)C.Cl [LIPID 3, bis(1,3-bis(Nonanoyloxy)propan-2-yl) 5-((4-(dimethylamino)butanoyl)oxy)nonanedioate HCl Salt] |  |  |  |  | 51 | 87 | 51 | 87 | 15 | 15 | 191 | 471 | 471 | BLOQ | BLOQ | BLOQ | BLOQ | 6.41 | 6.49 | EPO exprssn (ng/mL) 0.03 mpk (hEPO; Table 2): 191 ng/mL; pKa: EPO ([4]; Table 2): 6.41; pKa: FVII ([4]; Table 2): 6.49
9 | CCC1CCC(C(=O)OCC(COC(=O)C2CCC(CC)CC2)OC(=O)CCCN(CCCC(=O)OC(COC(=O)C2CCC(CC)CC2)COC(=O)C2CCC(CC)CC2)C(=O)SCCCN(C)C)CC1 (centres unmarked) [LIPID 16, ((4,4′-((((3-(Dimethylamino)propyl)thio)carbonyl)azanediyl)bis(butanoyl))bis(oxy))bis(propane-2,1,3-triyl)tetrakis(4-ethylcyclohexane-1-carboxylate)] |  |  |  |  | 58 | 88 | 58 | 88 | 40 | 40 | 2088 | 6358 | 2088 | <340 ng/tissue | <340 ng/tissue | <340 ng/tissue | <340 ng/tissue | 6.5 | 6.45 | pKa: EPO ([4]; Table 1): (6.50/; pKa: FVII ([4]; Table 1): 6.45)
10 | CN(C)CCCSC(=O)N(CCCC(=O)OC(COC(=O)CCc1ccc(-c2ccccc2)cc1)COC(=O)CCc1ccc(-c2ccccc2)cc1)CCCC(=O)OC(COC(=O)CCc1ccc(-c2ccccc2)cc1)COC(=O)CCc1ccc(-c2ccccc2)cc1 [Lipid 42, ((4,4′-((((3-(dimethylamino)propyl)thio)carbonyl)azanediyl)bis(butanoyl))bis(oxy))bis(propane-2,1,3-triyl)tetrakis(3-([1,1′-biphenyl]-4-yl)propanoate)] | 100.4 | 88.2 | 0.086 |  |  |  |  |  |  |  |  |  |  |  |  |  |  |  |  | 
11 | CN(C)CCCSC(=O)N(CCCC(=O)OC(COC(=O)CCCC1CCCCC1)COC(=O)CCCC1CCCCC1)CCCC(=O)OC(COC(=O)CCCC1CCCCC1)COC(=O)CCCC1CCCCC1 [LIPID 11, ((4,4′-((((3-(Dimethylamino)propyl)thio)carbonyl)azanediyl)bis(butanoyl))bis(oxy))bis(propane-2,1,3-triyl)tetrakis(4-cyclohexylbutanoate)] |  |  |  |  | 84 | 22 | 84 | 22 | 40 | 40 | 169 | 548 | 548 | BLOQ | BLOQ | BLOQ | BLOQ | 6.6 | 6.68 | EPO exprssn (ng/mL) 0.03 mpk (hEPO; Table 2): 169 ng/mL; pKa: EPO ([4]; Table 2): 6.6; pKa: FVII ([4]; Table 2): 6.68

— patent US20240391870A1 (Arcturus Therapeutics, Inc., priority 2023, published 2024)
